What was measured:
[1] = test system: patients with LGS or DS; assay: Phase 3 randomized controlled trials of CBD versus placebo, adverse reactions in DS and LGS patients; type: in vivo, human; conditions: for Abnormal behavior, adverse reaction incidence / Aggression, adverse reaction incidence / Agitation, adverse reaction incidence / Alanine aminotransferase increased, adverse reaction incidence / Aspartate aminotransferase increased, adverse reaction incidence / Decreased appetite, adverse reaction incidence / Diarrhea, adverse reaction incidence / Drooling, adverse reaction incidence / Fatigue, adverse reaction incidence / Gamma-glutamyl transferase increased, adverse reaction incidence / Insomnia, adverse reaction incidence / Irritability, adverse reaction incidence / Lethargy, adverse reaction incidence / Liver function test increased, adverse reaction incidence / Pneumonia (grouped terms), adverse reaction incidence / Pyrexia, adverse reaction incidence / Rash, adverse reaction incidence / Somnolence (grouped: somnolence, sedation), adverse reaction incidence / Weight decreased, adverse reaction incidence: DS and LGS, 14-week treatment; for Subjects with pneumonia, %: LGS and DS; for Pneumonia incidence: controlled trials
Description: (§1) Randomized, double-blind, parallel-group, trials of CBD versus placebo were undertaken and the adverse event experienced by the patients were collated and investigated.
(§2) In summary patients completed a 1-week screening period and a 4-week baseline period before they were randomized to receive CBD or equivalent volumes of placebo. Randomization was stratified by age.
(§3) Patients began a 4-week dose escalation period, titrating up to their assigned dose, before continuing on a stable dose of blinded investigational medicinal product (IMP) for 12 or 14 weeks.
(§4) Dose escalation for each patient was subject to the investigator's assessment of safety and tolerability. If a dose became poorly tolerated, the investigator may consider temporarily or permanently reducing the dose for the remainder of the study.
(§5) Clinic visits occurred for screening (Day-35), baseline (Day-28), randomization (Day 1) and, on Days 15 and 29 during titration and on Days 43, 57, 71 (telephone) and 85 until the end of treatment (Day 113). Safety telephone calls were completed every two days during titration, one week after the end of titration and, for patients not entering the open label extension (OLE), weekly from Visit 10 to Visit 12.
(§6) Safety and tolerability measures that were recorded included: adverse events; clinical laboratory parameters; 12-lead electrocardiogram (ECG); physical examination parameters (including height and weight); vital signs; Columbia-Suicide Severity Rating Scale (C-SSRS; 19+ years) or C-SSRS Children's (6-18 years) score, where applicable; number of inpatient hospitalizations due to epilepsy; abuse liability and effects on menstruation cycles (in females).
Table 1.1 below lists the adverse reactions that were reported in DS and LGS patients treated with CBD during the 14-week treatment period in the Phase 3 controlled trials.

[2] = test system: patients with TSC; assay: Phase 3 randomized controlled trial of CBD versus placebo, adverse reactions in TSC patients; type: in vivo, human; conditions: for Alanine aminotransferase increased, adverse reaction incidence / Anaemia, adverse reaction incidence / Aspartate aminotransferase increased, adverse reaction incidence / Decreased appetite, adverse reaction incidence / Diarrhoea, adverse reaction incidence / Eosinophil count increased, adverse reaction incidence / Fatigue, adverse reaction incidence / Gamma glutamyl transferase increased, adverse reaction incidence / Nausea, adverse reaction incidence / Pneumonia (grouped terms), adverse reaction incidence / Pyrexia, adverse reaction incidence / Rash, adverse reaction incidence / Somnolence, adverse reaction incidence / Urinary tract infection, adverse reaction incidence / Vomiting, adverse reaction incidence / Weight decreased, adverse reaction incidence / Subjects with pneumonia, %: TSC; for Alanine aminotransferase increased, adverse reaction incidence / Anaemia, adverse reaction incidence / Aspartate aminotransferase increased, adverse reaction incidence / Decreased appetite, adverse reaction incidence / Diarrhoea, adverse reaction incidence / Eosinophil count increased, adverse reaction incidence / Fatigue, adverse reaction incidence / Gamma glutamyl transferase increased, adverse reaction incidence / Nausea, adverse reaction incidence / Pneumonia (grouped terms), adverse reaction incidence / Pyrexia, adverse reaction incidence / Rash, adverse reaction incidence / Somnolence, adverse reaction incidence / Urinary tract infection, adverse reaction incidence / Vomiting, adverse reaction incidence / Weight decreased, adverse reaction incidence: 12-week treatment
Description: as §1, §2, §3, §4, §5, §6
Table 1.12 below lists the adverse reactions that were reported in TSC patients treated with CBD during the 12-week treatment period in the Phase 3 controlled trial.

[3] = test system: healthy adults and patients with LGS, DS, and TSC; assay: Controlled studies, serum creatinine; type: in vivo, human
Description: CBD can cause elevations in serum creatinine. The mechanism has not yet been determined. In controlled studies in healthy adults and in patients with LGS, DS, and TSC, an increase in serum creatinine of approximately 10% was observed within 2 weeks of starting CBD-OS. The increase was reversible in healthy adults. Reversibility was not assessed in studies in LGS, DS, or TSC.

[4] = test system: patients with LGS, DS, or TSC; assay: Double-blind placebo-controlled trials across LGS, DS and TSC, overall statements; type: in vivo, human
Description: as §1, §2, §3, §6

[5] = test system: adult patients; conditions: 200 mg/day of pure CBD; four adult patients; cited from earlier work
[6] = test system: adult patients with generalized epilepsy; conditions: eight adult patients with generalized epilepsy; cited from earlier work
[7] = test system: mice; conditions: after administration of pro-convulsant drugs or an electric current; cited from earlier work
[8] = test system: institutionalized adult patients; conditions: 200 mg/day of pure CBD; twelve institutionalized adult patients; open label; cited from earlier work
[9] = All active (n = 456, includes 10 patients at 5 mg/kg/day)
[10] = 50 mg/kg/day group (N = 73; one-third did not reach 50 mg/kg/day)

C=C(C)[C@@H]1CCC(C)=C[C@H]1c1c(O)cc(CCCCC)cc1O [CBD, cannabidiol]
Abnormal behavior, adverse reaction incidence ([1]; 10 mg/kg/day (n = 139)): 0%
Aggression, adverse reaction incidence ([1]; 10 mg/kg/day (n = 139)): 2%
Agitation, adverse reaction incidence ([1]; 10 mg/kg/day (n = 139)): 0%
Alanine aminotransferase increased, adverse reaction incidence ([1]; 10 mg/kg/day (n = 139)): 4%
Aspartate aminotransferase increased, adverse reaction incidence ([1]; 10 mg/kg/day (n = 139)): 4%
Decreased appetite, adverse reaction incidence ([1]; 10 mg/kg/day (n = 139)): 17%
Diarrhea, adverse reaction incidence ([1]; 10 mg/kg/day (n = 139)): 13%
Drooling, adverse reaction incidence ([1]; 10 mg/kg/day (n = 139)): 0%
Fatigue, adverse reaction incidence ([1]; 10 mg/kg/day (n = 139)): 7%
Gamma-glutamyl transferase increased, adverse reaction incidence ([1]; 10 mg/kg/day (n = 139)): 4%
Insomnia, adverse reaction incidence ([1]; 10 mg/kg/day (n = 139)): 4%
Irritability, adverse reaction incidence ([1]; 10 mg/kg/day (n = 139)): 7%
Lethargy, adverse reaction incidence ([1]; 10 mg/kg/day (n = 139)): 3%
Liver function test increased, adverse reaction incidence ([1]; 10 mg/kg/day (n = 139)): 0%
Pneumonia (grouped terms), adverse reaction incidence ([1]; 10 mg/kg/day (n = 139)): 9%
Pyrexia, adverse reaction incidence ([1]; 10 mg/kg/day (n = 139)): 17%
Rash, adverse reaction incidence ([1]; 10 mg/kg/day (n = 139)): 2%
Somnolence (grouped: somnolence, sedation), adverse reaction incidence ([1]; 10 mg/kg/day (n = 139)): 26%
Weight decreased, adverse reaction incidence ([1]; 10 mg/kg/day (n = 139)): 1%
Abnormal behavior, adverse reaction incidence ([1]; 20 mg/kg/day (n = 307)): 3%
Aggression, adverse reaction incidence ([1]; 20 mg/kg/day (n = 307)): 5%
Agitation, adverse reaction incidence ([1]; 20 mg/kg/day (n = 307)): 1%
Alanine aminotransferase increased, adverse reaction incidence ([1]; 20 mg/kg/day (n = 307)): 7%
Aspartate aminotransferase increased, adverse reaction incidence ([1]; 20 mg/kg/day (n = 307)): 7%
Decreased appetite, adverse reaction incidence ([1]; 20 mg/kg/day (n = 307)): 24%
Diarrhea, adverse reaction incidence ([1]; 20 mg/kg/day (n = 307)): 21%
Drooling, adverse reaction incidence ([1]; 20 mg/kg/day (n = 307)): 3%
Fatigue, adverse reaction incidence ([1]; 20 mg/kg/day (n = 307)): 13%
Gamma-glutamyl transferase increased, adverse reaction incidence ([1]; 20 mg/kg/day (n = 307)): 5%
Insomnia, adverse reaction incidence ([1]; 20 mg/kg/day (n = 307)): 3%
Irritability, adverse reaction incidence ([1]; 20 mg/kg/day (n = 307)): 5%
Lethargy, adverse reaction incidence ([1]; 20 mg/kg/day (n = 307)): 6%
Liver function test increased, adverse reaction incidence ([1]; 20 mg/kg/day (n = 307)): 3%
Pneumonia (grouped terms), adverse reaction incidence ([1]; 20 mg/kg/day (n = 307)): 5%
Pyrexia, adverse reaction incidence ([1]; 20 mg/kg/day (n = 307)): 15%
Rash, adverse reaction incidence ([1]; 20 mg/kg/day (n = 307)): 5%
Somnolence (grouped: somnolence, sedation), adverse reaction incidence ([1]; 20 mg/kg/day (n = 307)): 29%
Weight decreased, adverse reaction incidence ([1]; 20 mg/kg/day (n = 307)): 4%
Abnormal behavior, adverse reaction incidence [1, 9]: 2%
Aggression, adverse reaction incidence [1, 9]: 4%
Agitation, adverse reaction incidence [1, 9]: 1%
Alanine aminotransferase increased, adverse reaction incidence [1, 9]: 6%
Aspartate aminotransferase increased, adverse reaction incidence [1, 9]: 6%
Decreased appetite, adverse reaction incidence [1, 9]: 21%
Diarrhea, adverse reaction incidence [1, 9]: 18%
Drooling, adverse reaction incidence [1, 9]: 2%
Fatigue, adverse reaction incidence [1, 9]: 11%
Gamma-glutamyl transferase increased, adverse reaction incidence [1, 9]: 4%
Insomnia, adverse reaction incidence [1, 9]: 3%
Irritability, adverse reaction incidence [1, 9]: 6%
Lethargy, adverse reaction incidence [1, 9]: 5%
Liver function test increased, adverse reaction incidence [1, 9]: 2%
Pneumonia (grouped terms), adverse reaction incidence [1, 9]: 6%
Pyrexia, adverse reaction incidence [1, 9]: 16%
Rash, adverse reaction incidence [1, 9]: 4%
Somnolence (grouped: somnolence, sedation), adverse reaction incidence [1, 9]: 29%
Weight decreased, adverse reaction incidence [1, 9]: 3%
Subjects with pneumonia, % ([1]; With CLB, 10 mg/kg/day, N1 = 85): 14.1%
Subjects with pneumonia, % ([1]; With CLB, 20 mg/kg/day, N1 = 167): 7.2%
Subjects with pneumonia, % ([1]; Without CLB, 20 mg/kg/day, N2 = 140): 2.9%
Patients who developed a new laboratory-defined anaemia during the study ([1]; patients with LGS and DS, normal haemoglobin at baseline, later below lower limit of normal): 27%
Discontinuation incidence for transaminase elevation ([1]; patients with LGS or DS): dose responsive
Pneumonia incidence ([1]; with clobazam, 10 mg/kg/day CBD): 14%
Pneumonia incidence ([1]; with clobazam, 20 mg/kg/day CBD): 7%
Pneumonia incidence ([1]; without concomitant clobazam, 10 mg/kg/day CBD): 0%
Pneumonia incidence ([1]; without concomitant clobazam, 20 mg/kg/day CBD): 3%
Alanine aminotransferase increased, adverse reaction incidence ([2]; 25 mg/kg/day (N = 75)): 12%
Anaemia, adverse reaction incidence ([2]; 25 mg/kg/day (N = 75)): 7%
Aspartate aminotransferase increased, adverse reaction incidence ([2]; 25 mg/kg/day (N = 75)): 11%
Decreased appetite, adverse reaction incidence ([2]; 25 mg/kg/day (N = 75)): 20%
Diarrhoea, adverse reaction incidence ([2]; 25 mg/kg/day (N = 75)): 31%
Eosinophil count increased, adverse reaction incidence ([2]; 25 mg/kg/day (N = 75)): 5%
Fatigue, adverse reaction incidence ([2]; 25 mg/kg/day (N = 75)): 5%
Gamma glutamyl transferase increased, adverse reaction incidence ([2]; 25 mg/kg/day (N = 75)): 16%
Nausea, adverse reaction incidence ([2]; 25 mg/kg/day (N = 75)): 9%
Pneumonia (grouped terms), adverse reaction incidence ([2]; 25 mg/kg/day (N = 75)): 4%
Pyrexia, adverse reaction incidence ([2]; 25 mg/kg/day (N = 75)): 19%
Rash, adverse reaction incidence ([2]; 25 mg/kg/day (N = 75)): 7%
Somnolence, adverse reaction incidence ([2]; 25 mg/kg/day (N = 75)): 13%
Urinary tract infection, adverse reaction incidence ([2]; 25 mg/kg/day (N = 75)): 5%
Vomiting, adverse reaction incidence ([2]; 25 mg/kg/day (N = 75)): 17%
Weight decreased, adverse reaction incidence ([2]; 25 mg/kg/day (N = 75)): 7%
Patients who developed a new laboratory-defined anaemia during the study ([2]; 25 mg/kg/day, patients with TSC, normal haemoglobin at baseline, later below lower limit of normal): 38%
Alanine aminotransferase increased, adverse reaction incidence [2, 10]: 22%
Anaemia, adverse reaction incidence [2, 10]: 4%
Aspartate aminotransferase increased, adverse reaction incidence [2, 10]: 19%
Decreased appetite, adverse reaction incidence [2, 10]: 23%
Diarrhoea, adverse reaction incidence [2, 10]: 56%
Eosinophil count increased, adverse reaction incidence [2, 10]: 1%
Fatigue, adverse reaction incidence [2, 10]: 6%
Gamma glutamyl transferase increased, adverse reaction incidence [2, 10]: 14%
Nausea, adverse reaction incidence [2, 10]: 3%
Pneumonia (grouped terms), adverse reaction incidence [2, 10]: 3%
Pyrexia, adverse reaction incidence [2, 10]: 16%
Rash, adverse reaction incidence [2, 10]: 12%
Somnolence, adverse reaction incidence [2, 10]: 26%
Urinary tract infection, adverse reaction incidence [2, 10]: 1%
Vomiting, adverse reaction incidence [2, 10]: 18%
Weight decreased, adverse reaction incidence [2, 10]: 8%
Subjects with pneumonia, % ([2]; With CLB, 25 mg/kg/day, N1 = 18): 16.7%
Subjects with pneumonia, % ([2]; With CLB, 50 mg/kg/day, N1 = 20): 5.0%
Subjects with pneumonia, % ([2]; Without CLB, 50 mg/kg/day, N2 = 53): 1.9%
Discontinuation for transaminase elevation ([2]; controlled trial in TSC): dose responsive
Pneumonia incidence ([2]; with concomitant clobazam, 25 mg/kg/day, patients with TSC): 17%
Pneumonia incidence ([2]; without clobazam, 25 mg/kg/day, patients with TSC): 0%
Reversibility of the serum creatinine increase ([3]; healthy adults): reversible
Increase in serum creatinine ([3]; within 2 weeks of starting CBD-OS, healthy adults and patients with LGS, DS, and TSC): approximately 10%
Seizure frequency versus placebo ([4]; CBD alone or in combination with clobazam, across all treatment groups): significant reduction
Decrease in weight ([4]; patients with LGS, DS, or TSC): dose related
Incidence of pneumonia in patients concurrently taking clobazam in addition to CBD ([4]; versus patients not taking clobazam, LGS, DS and TSC): significantly higher
Patients who became seizure free [5]: two of the four
Number of patients with a marked reduction of seizures [6]: 4
Prevention of seizures [7]: able to prevent seizures
Control of seizures [8]: ineffective

Reference: patent US20250319107A1, “USE OF CANNABIDIOL AND CLOBAZAM IN THE TREATMENT OF CHILDHOOD-ONSET EPILEPSY SYNDROMES” (GW Research Limited, priority 2021, published 2025)
